In ChEMBL document CHEMBL1201862, “PubChem BioAssay data set” (2004):
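Test compounds were applied to cells in 96-well plates for 48 hours at 5 doses. GI50 is the concentration that inhibits growth by half.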 Calls of active or inactive are those of the source. Rule as the data show it: active = GI50 up to about 1.1 µM and inactive = higher.

What was measured:
Assay in all cases: NCI tumour cell line growth inhibition, 48 h
HT-29 = system: HT-29
SF-268 = system: SF-268
SNB-75 = system: SNB-75
IGROV-1 = system: IGROV-1
786-0 = system: 786-0
SR = system: SR
HCC 2998 = system: HCC 2998
EKVX = system: EKVX
M14 = system: M14
UACC-257 = system: UACC-257
NCI-H522 = system: NCI-H522
CAKI-1 = system: CAKI-1
A549 = system: A549
MCF7 = system: MCF7
NCI-H460 = system: NCI-H460
K562 = system: K562
OVCAR-8 = system: OVCAR-8
SW-620 = system: SW-620
UO-31 = system: UO-31
LOX IMVI = system: LOX IMVI
COLO 205 = system: COLO 205
BT-549 = system: BT-549
SK-MEL-2 = system: SK-MEL-2
ACHN = system: ACHN
T47D = system: T47D
A498 = system: A498
PC-3 = system: PC-3
MDA-N = system: MDA-N
RXF 393 = system: RXF 393
HOP-92 = system: HOP-92
HCT-15 = system: HCT-15
OVCAR-3 = system: OVCAR-3
RPMI-8226 = system: RPMI-8226
SNB-19 = system: SNB-19
TK-10 = system: TK-10
OVCAR-4 = system: OVCAR-4
DU-145 = system: DU-145
MDA-MB-231 = system: MDA-MB-231
NCI-H23 = system: NCI-H23
U-251 = system: U-251
Hs-578T = system: Hs-578T
SF-295 = system: SF-295
OVCAR-5 = system: OVCAR-5
SK-MEL-5 = system: SK-MEL-5
KM12 = system: KM12
NCI/ADR-RES = system: NCI/ADR-RES
SK-MEL-28 = system: SK-MEL-28
SK-OV-3 = system: SK-OV-3
CCRF-CEM = system: CCRF-CEM
HCT-116 = system: HCT-116
Malme-3M = system: Malme-3M
SN12C = system: SN12C
HL-60 = system: HL-60
HOP-62 = system: HOP-62
SF-539 = system: SF-539
UACC-62 = system: UACC-62
MOLT-4 = system: MOLT-4
MDA-MB-435 = system: MDA-MB-435
NCI-H226 = system: NCI-H226

## CC(=O)Oc1cc2c(cc1OC(C)=O)[C@H]1CC[C@]3(C)[C@@H](OC(C)=O)CC[C@H]3[C@@H]1CC2
HT-29
  GI50: 5.14 µM (inactive)
SF-268
  GI50: 4.66 µM (inactive)
SNB-75
  GI50: 0.162 µM (active)
IGROV-1
  GI50: 3.77 µM (inactive)
786-0
  GI50: 4.78 µM (inactive)
SR
  GI50: 0.45 µM (active)
HCC 2998
  GI50: 7.71 µM (inactive)
EKVX
  GI50: 2.56 µM (inactive)
M14
  GI50: 6 µM (inactive)
UACC-257
  GI50: 9.66 µM (inactive)
NCI-H522
  GI50: 1.16 µM (inactive)
CAKI-1
  GI50: 3.22 µM (inactive)
A549
  GI50: 7.96 µM (inactive)
MCF7
  GI50: 6.37 µM (inactive)
NCI-H460
  GI50: 8.57 µM (inactive)
K562
  GI50: 2.23 µM (inactive)
OVCAR-8
  GI50: 6.7 µM (inactive)
SW-620
  GI50: 1.9 µM (inactive)
UO-31
  GI50: 2.19 µM (inactive)
LOX IMVI
  GI50: 2.92 µM (inactive)
COLO 205
  GI50: 3.43 µM (inactive)
BT-549
  GI50: 1.99 µM (inactive)
SK-MEL-2
  GI50: 3.06 µM (inactive)
ACHN
  GI50: 3.56 µM (inactive)
T47D
  GI50: 7.26 µM (inactive)
A498
  GI50: 11.8 µM (inactive)
PC-3
  GI50: 9.29 µM (inactive)
MDA-N
  GI50: 0.773 µM (active)
RXF 393
  GI50: 4.5 µM (inactive)
HOP-92
  GI50: 1.1 µM (active)
HCT-15
  GI50: 1.48 µM
OVCAR-3
  GI50: 2.21 µM (inactive)
RPMI-8226
  GI50: 1.92 µM (inactive)
SNB-19
  GI50: 6.65 µM (inactive)
TK-10
  GI50: 8.28 µM (inactive)
OVCAR-4
  GI50: 5.61 µM (inactive)
DU-145
  GI50: 3.15 µM (inactive)
MDA-MB-231
  GI50: 7.41 µM (inactive)
NCI-H23
  GI50: 10.2 µM (inactive)
U-251
  GI50: 4.95 µM (inactive)
Hs-578T
  GI50: 1.87 µM (inactive)
SF-295
  GI50: 4.49 µM (inactive)
OVCAR-5
  GI50: 10.1 µM (inactive)
SK-MEL-5
  GI50: 5.62 µM (inactive)
KM12
  GI50: 8.91 µM (inactive)
NCI/ADR-RES
  GI50: 9.53 µM (inactive)
SK-MEL-28
  GI50: 4.15 µM (inactive)
SK-OV-3
  GI50: 6.38 µM (inactive)

## COc1cc(S(=O)(=O)Nc2ccc(-c3csc(N4C(=O)C(C)SC4c4cccc(Oc5ccccc5)c4)n3)cc2)ccc1Cl (stereo unspecified)
HT-29
  GI50: 35.4 µM (inactive)
CCRF-CEM
  GI50: 64.7 µM (inactive)
HCT-116
  GI50: 34.8 µM (inactive)
Malme-3M
  GI50: > 100 µM (inactive)
SF-268
  GI50: 26.7 µM (inactive)
SN12C
  GI50: 70.1 µM (inactive)
SNB-75
  GI50: 52.1 µM (inactive)
IGROV-1
  GI50: 39 µM (inactive)
SR
  GI50: 26.3 µM (inactive)
EKVX
  GI50: 53.2 µM (inactive)
M14
  GI50: 34.7 µM (inactive)
HL-60
  GI50: 27.2 µM (inactive)
NCI-H522
  GI50: 29.8 µM (inactive)
CAKI-1
  GI50: 46 µM (inactive)
A549
  GI50: > 100 µM (inactive)
MCF7
  GI50: 24.1 µM (inactive)
K562
  GI50: 36.5 µM (inactive)
OVCAR-8
  GI50: 37.5 µM (inactive)
SW-620
  GI50: 59 µM (inactive)
UO-31
  GI50: 64.6 µM (inactive)
LOX IMVI
  GI50: 32.4 µM (inactive)
COLO 205
  GI50: 27.7 µM (inactive)
BT-549
  GI50: 26.7 µM (inactive)
SK-MEL-2
  GI50: 86.9 µM (inactive)
HOP-62
  GI50: 50.7 µM (inactive)
ACHN
  GI50: 57.8 µM (inactive)
T47D
  GI50: 29.6 µM (inactive)
A498
  GI50: 27.4 µM (inactive)
PC-3
  GI50: 43.9 µM (inactive)
MDA-N
  GI50: 27.7 µM (inactive)
RXF 393
  GI50: 17.3 µM (inactive)
HOP-92
  GI50: 32.7 µM (inactive)
HCT-15
  GI50: 36.9 µM
OVCAR-3
  GI50: 43.6 µM (inactive)
SF-539
  GI50: 27.6 µM (inactive)
RPMI-8226
  GI50: 42.1 µM (inactive)
UACC-62
  GI50: 28.4 µM (inactive)
SNB-19
  GI50: 86.9 µM (inactive)
DU-145
  GI50: 35.3 µM (inactive)
NCI-H23
  GI50: 33 µM (inactive)
Hs-578T
  GI50: 34 µM (inactive)
SF-295
  GI50: 46.2 µM (inactive)
OVCAR-5
  GI50: 83.2 µM (inactive)
MOLT-4
  GI50: 37.8 µM (inactive)
SK-MEL-5
  GI50: 27.5 µM (inactive)
KM12
  GI50: 34.5 µM (inactive)
MDA-MB-435
  GI50: 32.6 µM (inactive)
NCI/ADR-RES
  GI50: > 100 µM (inactive)
SK-MEL-28
  GI50: 55.8 µM (inactive)
NCI-H226
  GI50: 27.1 µM (inactive)
SK-OV-3
  GI50: 52.6 µM (inactive)

## COc1cc2c(cc1OC)C1=Cc3cc(OC)c(OC)cc3C(C)N1C=C2 (stereo unspecified)
HT-29
  GI50: 74.3 µM (inactive)
CCRF-CEM
  GI50: 27.3 µM (inactive)
HCT-116
  GI50: 50.2 µM (inactive)
Malme-3M
  GI50: > 100 µM (inactive)
SF-268
  GI50: 21.5 µM (inactive)
SN12C
  GI50: 87.5 µM (inactive)
SNB-75
  GI50: 40 µM (inactive)
IGROV-1
  GI50: > 100 µM (inactive)
786-0
  GI50: > 100 µM (inactive)
HCC 2998
  GI50: > 100 µM (inactive)
EKVX
  GI50: > 100 µM (inactive)
M14
  GI50: > 100 µM (inactive)
UACC-257
  GI50: 33.7 µM (inactive)
HL-60
  GI50: > 100 µM (inactive)
A549
  GI50: > 100 µM (inactive)
MCF7
  GI50: 21 µM (inactive)
NCI-H460
  GI50: 47.1 µM (inactive)
K562
  GI50: 25.9 µM (inactive)
OVCAR-8
  GI50: 52 µM (inactive)
SW-620
  GI50: 84.5 µM (inactive)
UO-31
  GI50: 55.1 µM (inactive)
COLO 205
  GI50: 22 µM (inactive)
BT-549
  GI50: 34.6 µM (inactive)
HOP-62
  GI50: 44.2 µM (inactive)
ACHN
  GI50: > 100 µM (inactive)
T47D
  GI50: 29.3 µM (inactive)
A498
  GI50: 82.6 µM (inactive)
PC-3
  GI50: 12.3 µM (inactive)
MDA-N
  GI50: 51.5 µM (inactive)
RXF 393
  GI50: 57.4 µM (inactive)
HOP-92
  GI50: > 100 µM (inactive)
HCT-15
  GI50: 69.7 µM
OVCAR-3
  GI50: 32.1 µM (inactive)
SF-539
  GI50: > 100 µM (inactive)
RPMI-8226
  GI50: 40 µM (inactive)
UACC-62
  GI50: 75.7 µM (inactive)
SNB-19
  GI50: 59.4 µM (inactive)
TK-10
  GI50: 83.4 µM (inactive)
DU-145
  GI50: > 100 µM (inactive)
NCI-H23
  GI50: > 100 µM (inactive)
U-251
  GI50: 37.2 µM (inactive)
Hs-578T
  GI50: 74 µM (inactive)
SF-295
  GI50: > 100 µM (inactive)
OVCAR-5
  GI50: > 100 µM (inactive)
MOLT-4
  GI50: 35.2 µM (inactive)
SK-MEL-5
  GI50: 38.4 µM (inactive)
KM12
  GI50: 74.8 µM (inactive)
MDA-MB-435
  GI50: 41.8 µM (inactive)
NCI/ADR-RES
  GI50: > 100 µM (inactive)
SK-MEL-28
  GI50: 63.2 µM (inactive)
NCI-H226
  GI50: > 100 µM (inactive)
SK-OV-3
  GI50: > 100 µM (inactive)
